Test results published in US11912703B2, “6-azaindole compounds” (BRISTOL-MYERS SQUIBB COMPANY, priority 2017, dated 2024).
pIC50: −log10 of the molar value. Read-outs that look alike come from different tables or passages of the source.

Legend:
[1] = target: human TLR9 (Homo sapiens (Human), UniProt Q9NR96); assay: TLR9 inhibition reporter assay (HEK-Blue SEAP);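 note: SEAP driven by IFN-β minimal promoter carrying five NF-κB and AP-1 sites, 22 h at 37 °C, compounds 0.05 nM–50 µM, inhibition scaled between agonist-plus-DMSO and reference-inhibitor wells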
Description: HEK-Blue™-cells (Invivogen) overexpressing human TLR7, TLR8 or TLR9 receptors were used for screening inhibitors of these receptors using an inducible SEAP (secreted embryonic alkaline phosphatase) reporter gene under the control of the IFN-β minimal promoter fused to five NF-κB and AP-1-binding sites. Briefly, cells are seeded into Greiner 384 well plates (15000 cells per well for TLR7, 20,000 for TLR8 and 25,000 for TLR9) and then treated with test compounds in DMSO to yield a final dose response concentration range of 0.05 nM-50 μM. After a 30 minute compound pre-treatment at room temperature, the cells are then stimulated with a TLR7 ligand (gardiquimod at a final concentration of 7.5 μM), TLR8 ligand (R848 at a final concentration of 15.9 μM) or TLR9 ligand (ODN2006 at a final concentration of 5 nM) to activate NF-κB and AP-1 which induce the production of SEAP. After a 22 hour incubation at 37° C., 500 CO2, SEAP levels are determined with the addition of HEK-Blue™ Detection reagent (Invivogen), a cell culture medium that allows for detection of SEAP, according to manufacturer's specifications.

[2] = target: human TLR8 (Homo sapiens (Human), UniProt Q9NR97); assay: TLR8 inhibition reporter assay (HEK-Blue SEAP);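 note: SEAP driven by IFN-β minimal promoter with five NF-κB and AP-1 sites, compounds tested 0.05 nM to 50 µM, 22 h incubation, inhibition relative to agonist plus DMSO wells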
[3] = target: human TLR7 (Homo sapiens (Human), UniProt Q9NYK1); assay: TLR7 inhibition reporter assay (HEK-Blue SEAP); format: cell-based; conditions: HEK-Blue cells overexpressing human TLR7, gardiquimod 7.5 μM stimulation
[4] = read-out: TLR9 IC50; HEK-Blue cells overexpressing human TLR9, ODN2006 5 nM stimulation, SEAP reporter
[5] = read-out: TLR8 IC50; HEK-Blue cells overexpressing human TLR8, R848 15.9 μM stimulation, SEAP reporter
[6] = read-out: TLR9 IC50; HEK-Blue cells overexpressing human TLR9; ODN2006 5 nM stimulation; SEAP reporter
[7] = read-out: TLR8 IC50; HEK-Blue cells overexpressing human TLR8; R848 15.9 μM stimulation; SEAP reporter

human TLR9, sequence (Q9NR96 26-1032): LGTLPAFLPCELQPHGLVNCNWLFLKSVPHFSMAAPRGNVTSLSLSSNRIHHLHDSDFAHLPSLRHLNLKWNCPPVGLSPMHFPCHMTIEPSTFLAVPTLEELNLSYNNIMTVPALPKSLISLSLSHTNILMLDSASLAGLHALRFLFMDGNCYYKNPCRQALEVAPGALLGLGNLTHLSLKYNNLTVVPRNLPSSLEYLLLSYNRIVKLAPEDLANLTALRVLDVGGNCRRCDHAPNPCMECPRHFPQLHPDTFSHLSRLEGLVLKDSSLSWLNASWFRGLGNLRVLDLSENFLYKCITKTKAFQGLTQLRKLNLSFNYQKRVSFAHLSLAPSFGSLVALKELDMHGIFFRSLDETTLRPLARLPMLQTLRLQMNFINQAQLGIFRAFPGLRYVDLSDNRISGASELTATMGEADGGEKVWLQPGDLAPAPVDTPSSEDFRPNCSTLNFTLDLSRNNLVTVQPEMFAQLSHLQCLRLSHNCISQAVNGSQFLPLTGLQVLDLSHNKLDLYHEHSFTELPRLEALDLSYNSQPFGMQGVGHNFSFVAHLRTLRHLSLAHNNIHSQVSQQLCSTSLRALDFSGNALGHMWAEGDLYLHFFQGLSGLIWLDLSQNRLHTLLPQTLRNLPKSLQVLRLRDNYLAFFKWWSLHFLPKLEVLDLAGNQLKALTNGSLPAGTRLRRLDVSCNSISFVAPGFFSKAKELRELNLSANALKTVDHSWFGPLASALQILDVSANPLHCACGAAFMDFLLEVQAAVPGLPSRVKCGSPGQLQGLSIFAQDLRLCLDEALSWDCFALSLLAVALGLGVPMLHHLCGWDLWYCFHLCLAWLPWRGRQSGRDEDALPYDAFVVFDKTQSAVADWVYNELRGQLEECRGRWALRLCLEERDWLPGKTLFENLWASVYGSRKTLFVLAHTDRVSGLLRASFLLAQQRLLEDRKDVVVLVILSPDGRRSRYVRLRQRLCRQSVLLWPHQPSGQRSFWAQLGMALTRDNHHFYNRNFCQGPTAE
human TLR8, sequence (Q9NR97 27-1041): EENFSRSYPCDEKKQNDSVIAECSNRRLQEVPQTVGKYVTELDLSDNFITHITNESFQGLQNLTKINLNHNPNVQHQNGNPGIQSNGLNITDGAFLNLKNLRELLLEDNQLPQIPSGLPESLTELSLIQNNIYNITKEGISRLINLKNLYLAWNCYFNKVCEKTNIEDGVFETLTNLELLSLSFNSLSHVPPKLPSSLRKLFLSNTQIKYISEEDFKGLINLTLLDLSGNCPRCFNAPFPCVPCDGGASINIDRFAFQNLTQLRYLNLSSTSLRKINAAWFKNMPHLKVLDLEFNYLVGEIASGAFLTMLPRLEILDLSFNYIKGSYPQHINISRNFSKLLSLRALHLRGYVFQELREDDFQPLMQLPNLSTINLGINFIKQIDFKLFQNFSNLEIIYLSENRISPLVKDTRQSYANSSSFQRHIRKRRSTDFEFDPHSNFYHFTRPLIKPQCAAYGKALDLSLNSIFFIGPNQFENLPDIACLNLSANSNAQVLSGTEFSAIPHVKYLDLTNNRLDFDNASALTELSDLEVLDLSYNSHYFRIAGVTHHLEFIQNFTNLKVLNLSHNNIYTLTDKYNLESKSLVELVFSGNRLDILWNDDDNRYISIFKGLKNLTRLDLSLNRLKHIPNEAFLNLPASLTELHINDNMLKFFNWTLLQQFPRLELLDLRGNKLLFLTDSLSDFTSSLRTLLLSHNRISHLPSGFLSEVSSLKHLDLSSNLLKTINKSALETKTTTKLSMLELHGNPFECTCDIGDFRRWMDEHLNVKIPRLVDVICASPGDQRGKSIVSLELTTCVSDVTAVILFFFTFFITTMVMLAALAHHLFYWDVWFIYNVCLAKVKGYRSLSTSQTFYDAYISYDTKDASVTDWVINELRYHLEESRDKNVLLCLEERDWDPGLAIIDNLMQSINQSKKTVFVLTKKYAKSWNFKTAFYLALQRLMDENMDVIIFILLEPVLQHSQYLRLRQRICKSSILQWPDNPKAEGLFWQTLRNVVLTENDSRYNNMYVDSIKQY
human TLR7, sequence (Q9NYK1 27-1049): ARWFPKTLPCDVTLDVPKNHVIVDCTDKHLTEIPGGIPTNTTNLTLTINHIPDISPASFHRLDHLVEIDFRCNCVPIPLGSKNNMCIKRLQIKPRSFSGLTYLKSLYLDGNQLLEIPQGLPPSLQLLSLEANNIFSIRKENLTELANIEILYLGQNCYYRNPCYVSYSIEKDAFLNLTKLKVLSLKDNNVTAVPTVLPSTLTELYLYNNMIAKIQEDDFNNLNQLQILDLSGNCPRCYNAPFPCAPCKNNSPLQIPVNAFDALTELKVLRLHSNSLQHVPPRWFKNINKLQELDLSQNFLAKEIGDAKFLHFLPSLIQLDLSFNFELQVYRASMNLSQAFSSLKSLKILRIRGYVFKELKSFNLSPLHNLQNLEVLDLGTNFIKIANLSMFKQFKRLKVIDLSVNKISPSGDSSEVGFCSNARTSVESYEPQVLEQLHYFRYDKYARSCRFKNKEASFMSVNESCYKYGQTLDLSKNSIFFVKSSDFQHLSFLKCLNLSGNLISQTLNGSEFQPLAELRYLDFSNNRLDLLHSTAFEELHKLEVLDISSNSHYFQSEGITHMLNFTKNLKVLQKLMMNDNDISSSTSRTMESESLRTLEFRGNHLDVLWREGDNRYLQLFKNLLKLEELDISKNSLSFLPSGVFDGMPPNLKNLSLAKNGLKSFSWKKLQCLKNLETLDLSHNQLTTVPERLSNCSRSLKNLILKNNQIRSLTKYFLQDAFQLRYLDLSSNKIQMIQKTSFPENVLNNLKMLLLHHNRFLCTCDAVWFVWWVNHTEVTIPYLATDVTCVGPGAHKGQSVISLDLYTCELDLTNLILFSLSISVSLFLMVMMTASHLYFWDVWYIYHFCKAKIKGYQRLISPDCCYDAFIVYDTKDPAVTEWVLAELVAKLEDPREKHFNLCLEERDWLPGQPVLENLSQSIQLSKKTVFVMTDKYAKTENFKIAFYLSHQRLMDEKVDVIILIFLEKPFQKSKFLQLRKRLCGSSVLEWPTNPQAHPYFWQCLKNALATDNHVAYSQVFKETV

Row | SMILES | pIC50 [1, 4] | pIC50 [2, 5] | pIC50 [3] | pIC50 [1, 6] | pIC50 [2, 7] | pIC50 [1] | pIC50 [2]
1 | COc1cc(-c2[nH]c3cnc(C4CCC(NCC5(C)COC5)C4)cc3c2C(C)C)cn2ncnc12 (stereo not drawn) [Example 275] | 6.07 | 7.43 | 7.46 | – | – | – | –
2 | COc1cc(-c2[nH]c3cnc(C4CCC(NCC5(C)COC5)CC4)c(F)c3c2C(C)C)cn2ncnc12 (stereo not drawn) [Example 225] | – | – | 8.40 | 5.33 | 8.85 | – | –
3 | COc1cc(-c2[nH]c3cnc(C4CCC(NC[C@@H](F)C(C)(C)O)CC4)c(C)c3c2C(C)C)cn2ncnc12 (stereo partly drawn) [Example 117] | 6.06 | 7.39 | 7.55 | – | – | – | –
4 | COc1cc(-c2[nH]c3cnc(C4CCC(N(C)CC(=O)N(C)C)CC4)c(F)c3c2C(C)C)cn2ncnc12 (stereo not drawn) [Example 79] | 6.07 | 8.44 | 8.52 | – | – | – | –
5 | CCN(C)C1CCC(c2cc3c(C(C)C)c(-c4cc(OC)c5ncnn5c4)[nH]c3cn2)C1 (stereo not drawn) [Example 177] | 6.26 | 8.40 | 8.06 | – | – | – | –
6 | CNCC(=O)N1CCC(c2ncc3[nH]c(-c4cc(C)c5ncnn5c4)c(C(C)C)c3c2F)CC1 [Example 39] | 5.26 | 7.80 | 8.19 | – | – | – | –
7 | COc1cc(-c2[nH]c3cnc(N4CCC(NC5CCOCC5)CC4)c(F)c3c2C(C)C)cn2ncnc12 [Example 100] | 5.63 | 9.60 | 9.10 | – | – | – | –
8 | COc1cc(-c2[nH]c3cnc(N4CCC(NC5COC5)CC4)c(C)c3c2C(C)C)cn2ncnc12 [Example 137] | 5.50 | 9.05 | 9.20 | – | – | – | –
9 | COc1cc(-c2[nH]c3cnc(C4CCNCC4)c(F)c3c2C(C)C)cn2ncnc12 [Example 3, 6-(4-fluoro-3-isopropyl-5-(piperidin-4-yl)-1H-pyrrolo[2,3-c]pyridin-2-yl)-8-methoxy-[1,2,4]triazolo[1,5-a]pyridine] | 5.80 | 7.96 | 8.49 | – | – | – | –
10 | CCN(C)C1CCC(c2ncc3[nH]c(-c4cn5ncnc5c(C)c4C)c(C(C)C)c3c2F)CC1 (stereo not drawn) [Example 135] | 5.19 | 9.32 | 9.62 | – | – | – | –
11 | COc1cc(-c2[nH]c3cnc(C4CCC(NCC(C)(C)C)C4)cc3c2C(C)C)cn2ncnc12 (stereo not drawn) [Example 95] | 5.86 | 7.46 | 7.39 | – | – | – | –
12 | COc1cc(-c2[nH]c3cnc(N4CCC(NC5(C)COC5)CC4)c(F)c3c2C(C)C)cn2ncnc12 [Example 188] | 5.29 | 9.68 | 8.80 | – | – | – | –
13 | Cc1c(-c2[nH]c3cnc(N4CCC(N(C)C(C)C)CC4)c(F)c3c2C(C)C)cn2ncnc2c1C [Example 52] | 5.73 | 9.38 | 9.01 | – | – | – | –
14 | Cc1c(-c2[nH]c3cnc(C4CCC(NCC5(C)COC5)CC4)c(C)c3c2C(C)C)cn2ncnc2c1C (stereo not drawn) [Example 203] | 6.29 | 8.03 | 7.57 | – | – | – | –
15 | COCCNC1CCN(c2ncc3[nH]c(-c4cc(OC)c5ncnn5c4)c(C(C)C)c3c2F)CC1 [Example 99] | 5.40 | 9.39 | 9.31 | – | – | – | –
16 | Cc1c(-c2[nH]c3cnc(C4CCNCC4)c(F)c3c2C(C)C)cn2ncnc2c1C [Example 13] | 5.56 | 8.17 | 8.19 | – | – | – | –
17 | COc1cc(-c2[nH]c3cnc(N4CCC(NC5CCOC5)CC4)c(F)c3c2C(C)C)cn2ncnc12 (stereo not drawn) [Example 190] | 6.06 | 9.66 | 9.11 | – | – | – | –

Row | SMILES | pIC50 [1, 4] | pIC50 [2, 5] | pIC50 [3] | pIC50 [1, 6] | pIC50 [2, 7] | pIC50 [1] | pIC50 [2]
18 | COc1cc(-c2[nH]c3cnc(C4CCC(N5CC6(COC6)C5)CC4)c(C)c3c2C(C)C)cn2ncnc12 (stereo not drawn) [Example 245] | 6.59 | 7.33 | 8.20 | – | – | – | –
19 | COc1cc(-c2[nH]c3cnc(C4CCN(CC(=O)N(C)C)CC4)cc3c2C(C)C)cn2ncnc12 [Example 298] | 6.34 | 7.12 | 7.85 | – | – | – | –
20 | COc1cc(-c2[nH]c3cnc(C4CCC(N(C)CC(N)=O)CC4)c(F)c3c2C(C)C)cn2ncnc12 (stereo not drawn) [Example 78] | 5.06 | 7.96 | 8.37 | – | – | – | –
21 | Cc1c(-c2[nH]c3cnc(N4CCC(NC5COC5)CC4)c(F)c3c2C(C)C)cn2ncnc2c1C [Example 146] | 5.18 | 9.34 | 8.96 | – | – | – | –
22 | Cc1c(-c2[nH]c3cnc(C4CCC(NC(C)C)CC4)c(C)c3c2C(C)C)cn2ncnc2c1C (stereo not drawn) [Example 61] | 6.46 | 7.46 | 7.55 | – | – | – | –
23 | Cc1c(-c2[nH]c3cnc(C4CCC(NCC5(C)COC5)CC4)c(F)c3c2C(C)C)cn2ncnc2c1C (stereo not drawn) [Example 172] | 5.58 | 9.12 | 8.36 | – | – | – | –
24 | COc1cc(-c2[nH]c3cnc(C4CCC(NC5CCOCC5)CC4)c(C)c3c2C(C)C)cn2ncnc12 (stereo not drawn) [Example 241] | 6.55 | 7.96 | 8.46 | – | – | – | –
25 | CNC(=O)CN1CCC(c2ncc3[nH]c(-c4cc(C)nc(C)c4)c(C(C)C)c3c2F)CC1 [Example 150] | 5.22 | 8.28 | 8.47 | – | – | – | –
26 | COc1cc(-c2[nH]c3cnc(C4CCC(NCC(C)(C)OC)C4)cc3c2C(C)C)cn2ncnc12 (stereo not drawn) [Example 179] | 6.31 | 8.15 | 7.70 | – | – | – | –
27 | COc1cc(-c2[nH]c3cnc(N4CCC(NC56CC(C5)C6)CC4)c(C)c3c2C(C)C)cn2ncnc12 [Example 56] | 6.00 | 8.82 | 8.74 | – | – | – | –
28 | Cc1cc(-c2[nH]c3cnc(C4CCC(NC5(C)COC5)CC4)c(F)c3c2C(C)C)cn2ncnc12 (stereo not drawn) [Example 231] | – | – | 8.23 | 5.38 | 8.18 | – | –
29 | COCCN1CCC(c2ncc3[nH]c(-c4cc(C)c5ncnn5c4)c(C(C)C)c3c2F)CC1 [Example 183] | 5.61 | 8.47 | 8.74 | – | – | – | –
30 | COc1cc(-c2[nH]c3cnc(C4CCN(CC(=O)N(C)C)CC4)c(F)c3c2C(C)C)cn2ncnc12 [Example 34] | 5.82 | 8.70 | 8.60 | – | – | – | –
31 | COCCN1CCC(c2ncc3[nH]c(-c4cc(C)nc(C)c4)c(C(C)C)c3c2F)CC1 [Example 216] | – | – | 7.85 | 5.33 | 7.92 | – | –
32 | CNC(=O)CN1CCC(c2cc3c(C(C)C)c(-c4cc(OC)c5ncnn5c4)[nH]c3cn2)CC1 [Example 292] | 6.52 | 7.33 | 8.15 | – | – | – | –
33 | Cc1c(-c2[nH]c3cnc(C4CCC(N5CC6(COC6)C5)CC4)c(C)c3c2C(C)C)cn2ncnc2c1C (stereo not drawn) [Example 57] | 6.17 | 7.72 | 8.31 | – | – | – | –

The remaining lines, values ahead:

Row | pIC50 [1, 4] | pIC50 [2, 5] | pIC50 [3] | pIC50 [1, 6] | pIC50 [2, 7] | pIC50 [1] | pIC50 [2] | SMILES
34 | 6.30 | 8.66 | 8.82 | – | – | – | – | COc1cc(-c2[nH]c3cnc(N4CCN(C(=O)CN(C)C)CC4)c(Cl)c3c2C(C)C)cn2ncnc12 [Example 304]
35 | 6.17 | 7.38 | 8.37 | – | – | – | – | Cc1c(-c2[nH]c3cnc(C4CCC(N5CCC5)CC4)cc3c2C(C)C)cn2ncnc2c1C (stereo not drawn) [Example 335]
36 | – | – | 7.09 | – | – | < 4.30 | 8.80 | Cc1c(-c2[nH]c3cnc(N4CC5(C4)CN(C4COC4)C5)c(F)c3c2C(C)C)cn2ncnc2c1C [Example 400, 6-(4-fluoro-3-isopropyl-5-(6-(oxetan-3-yl)-2,6-diazaspiro[3.3]heptan-2-yl)-1H-pyrrolo[2,3-c]pyridin-2-yl)-7,8-dimethyl-[1,2,4]triazolo[1,5-a]pyridine]
37 | – | – | 8.07 | 4.32 | 8.51 | – | – | CNC(=O)CN1CCN(c2ncc3[nH]c(-c4cn5ncnc5c(C)c4C)c(C(C)C)c3c2F)[C@H](C)C1 [Example 465]
38 | 6.81 | 7.25 | 8.11 | – | – | – | – | COc1cc(-c2[nH]c3cnc(C4CCC(N5CCC5)CC4)cc3c2C(C)C)cn2ncnc12 (stereo not drawn) [Example 332]
39 | 5.99 | 7.68 | 8.49 | – | – | – | – | Cc1cc(-c2[nH]c3cnc(C4CCN(C5COC5)CC4)cc3c2C(C)C)cn2ncnc12 [Example 341]
40 | 5.23 | 8.64 | 8.89 | – | – | – | – | COc1cc(-c2[nH]c3cnc(N4CCN(C(=O)CN(C)C)CC4)c(F)c3c2C(C)C)cn2ncnc12 [compound 368]
41 | – | – | 7.37 | < 4.30 | 7.30 | – | – | Cc1c(-c2[nH]c3cnc(N4CCN(CC(F)(F)F)C[C@H]4C)c(F)c3c2C(C)C)cn2ncnc2c1C [Example 468]
42 | 5.09 | 9.49 | 8.46 | – | – | – | – | Cc1c(-c2[nH]c3cnc(N4CCN(C5CCOCC5)CC4)c(F)c3c2C(C)C)cn2ncnc2c1C [Example 431]
43 | 5.83 | 8.11 | 8.25 | – | – | – | – | CCCN1CC2(C1)CN(c1ncc3[nH]c(-c4cc(OC)c5ncnn5c4)c(C(C)C)c3c1F)C2 [Example 380]
44 | 5.23 | 8.85 | 7.49 | – | – | – | – | Cc1c(-c2[nH]c3cnc(N4CCN(CC5CCOCC5)CC4)c(C)c3c2C(C)C)cn2ncnc2c1C [Example 419]
45 | < 4.30 | 8.47 | 8.60 | – | – | – | – | Cc1c(-c2[nH]c3cnc(N4CCN(C5COC5)CC4)c(F)c3c2C(C)C)cn2ncnc2c1C [Example 409]
46 | – | – | 8.14 | 4.36 | 8.59 | – | – | Cc1c(-c2[nH]c3cnc(N4CCN(CC(N)=O)C[C@H]4C)c(F)c3c2C(C)C)cn2ncnc2c1C [Example 464]
47 | – | – | 8.28 | 4.33 | 9.04 | – | – | COCCN1CCN(c2ncc3[nH]c(-c4cn5ncnc5c(C)c4C)c(C(C)C)c3c2F)[C@H](C)C1 [Example 472]
48 | 5.29 | 8.47 | 8.22 | – | – | – | – | COc1cc(-c2[nH]c3cnc(N4CC5(CN(C)C5)C4)c(F)c3c2C(C)C)cn2ncnc12 [Example 378]
49 | 5.26 | 8.23 | 8.05 | – | – | – | – | COc1cc(-c2[nH]c3cnc(N4CC5(CN(CC6CCOCC6)C5)C4)c(F)c3c2C(C)C)cn2ncnc12 [Example 371]
